In patent publication US20030109523A1, “Bicyclic antagonists selective for the alphavbeta3 integrin” (Wyeth, priority 1999, published 2003):
Marks after values point to notes of the source that are not given here. One block for each compound: values may come before it.

How the values were obtained:
[1] = target: T1, Vitronectin Receptor (αVβ3) (Homo sapiens, UniProt P05106+P06756); assay: Vitronectin Receptor (αVβ3) Binding Test Procedure; conditions: for IC50: read-out: (αVβ3) IC50 RECEPTOR BINDING
T1 construct: expressed in transfected cells; host or cells: 512P5 cells (plasma membrane preparation)

[2] = target: T2, αVβ3 integrin (Homo sapiens, UniProt P05106+P06756); assay: Osteopontin-αVβ3 Cell Attachment Test Procedure; format: cell-based; conditions: for IC50: attachment of cells to osteopontin, read-out: (αVβ3) IC50 CELL ATTACHMENT; for remaining activity at 100 µM / remaining activity at 20 µM: % of maximal attachment, read-out: (αVβ3) CELL ATTACHMENT, % @ concentration
T2 construct: αVβ3-expressing cell lines are maintained by standard tissue culture techniques; endogenous in cells; host or cells: αVβ3-expressing cell lines
Method in brief: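 Cells expressing αVβ3 (10^6 cells/mL) added with test compound to osteopontin-coated, 1% BSA-blocked wells in triplicate; 1.5 h at 25° C. Attached cells quantified by MTT dye conversion (overnight, 37° C.); optical density expressed as % of maximal attachment minus uncoated-well background, mean ±SD.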

[3] = test system: osteoclasts; assay: Osteoclast Bone Pitting; format: cell-based, rat
Method in brief: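 Osteoclasts on bone slices at an acidic pH promoting resorption; slices fixed, osteoclasts counted after TRAP staining, cells stripped by sonication in 0.25M NH4OH and toluidine blue-stained pits counted manually. Block design, three replicate slices per treatment per animal; IC50 from dose-response curves.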

[4] = target: T3, αIIbβ3 integrin (Homo sapiens, UniProt P05106+P08514); assay: ADP-Induced Platelet Aggregation; format: cell-based; conditions: Table VII; for remaining activity at 200 µM: percent of maximal aggregation; for IC50: ADP 20 uM, human platelets, read-out: Platelet Aggregation αIIbβ3 IC50
T3 construct: Human Platelets: Platelet-enriched plasma was obtained commercially from a donor pool; from tissue; host or cells: human platelet-rich plasma from a commercial donor pool
Method in brief: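 Pooled human PRP ([…]) preincubated with compound (1% vehicle) 5 min at 37° C with stirring, then stimulated with 20 uM ADP. Light transmittance followed 5 min against PPP reference; maximal aggregation expressed as % of vehicle control, mean ± SD.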

[5] = test system: thyro-parathyroidectomized (TPTX) rats; assay: PTH-induced Hypercalcemia of Thyro-parathyroidectomized Male Rats; format: in vivo, rat; conditions: for Change in Serum Calcium after 3 hours / Change in Serum Calcium after 6 hours: Table V, TPTX male rats, rPTH(1-34) 0.45 μg/kg/hr, Example 37 100 mg/kg, s.c.
From the text: Effects of Test Compounds on PTH-induced Hypercalcemia of Thyro-parathyroidectomized Male Rats. Male thyro-parathyroidectomized (TPTX) rats (Charles River) were randomly assigned to groups of 7 rats/group. […] For evaluation of prophylactic effects of a test drug, another minipump with appropriate concentration of the test drug solution was implanted subcutaneously at a site away from PTH minipump or implanted as a pellet of the test compound away from the PTH minipump. Alternatively, test drugs were administered by oral gavage as a solution or uniform suspension in an appropriate medium depending on the physical properties of the test compound. A group of 7 unimplanted TPTX rats was set aside as a normal control group.

[6] = % Max = percentage of the specific binding, read-out: (αVβ3) RECEPTOR BINDING, % @ concentration

T1 sequence (P06756 31-889 limits assumed): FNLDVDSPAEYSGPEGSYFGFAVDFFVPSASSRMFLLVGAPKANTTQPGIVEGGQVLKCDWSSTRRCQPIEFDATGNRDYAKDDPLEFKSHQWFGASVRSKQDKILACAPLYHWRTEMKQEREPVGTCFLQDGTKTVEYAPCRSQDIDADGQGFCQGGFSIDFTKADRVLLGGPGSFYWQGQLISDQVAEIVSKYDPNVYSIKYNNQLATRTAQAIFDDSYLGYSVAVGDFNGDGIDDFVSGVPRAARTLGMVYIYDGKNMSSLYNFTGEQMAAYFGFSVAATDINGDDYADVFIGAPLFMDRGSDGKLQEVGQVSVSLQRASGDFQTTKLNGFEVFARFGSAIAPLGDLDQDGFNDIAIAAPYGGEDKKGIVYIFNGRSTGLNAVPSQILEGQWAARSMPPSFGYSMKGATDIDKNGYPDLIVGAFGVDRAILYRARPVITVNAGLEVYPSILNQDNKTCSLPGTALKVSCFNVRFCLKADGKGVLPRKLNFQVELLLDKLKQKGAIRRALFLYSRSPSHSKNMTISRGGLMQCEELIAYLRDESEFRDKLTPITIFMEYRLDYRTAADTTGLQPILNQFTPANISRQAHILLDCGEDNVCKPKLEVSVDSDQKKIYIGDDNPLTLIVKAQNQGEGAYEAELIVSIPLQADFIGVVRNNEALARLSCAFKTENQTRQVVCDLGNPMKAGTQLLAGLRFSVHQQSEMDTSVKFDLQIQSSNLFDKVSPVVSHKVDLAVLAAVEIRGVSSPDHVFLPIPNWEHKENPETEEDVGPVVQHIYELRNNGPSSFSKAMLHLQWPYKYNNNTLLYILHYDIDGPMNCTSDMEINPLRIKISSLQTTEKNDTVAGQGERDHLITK
T1 sequence (P06756 891-1048 partner limits assumed): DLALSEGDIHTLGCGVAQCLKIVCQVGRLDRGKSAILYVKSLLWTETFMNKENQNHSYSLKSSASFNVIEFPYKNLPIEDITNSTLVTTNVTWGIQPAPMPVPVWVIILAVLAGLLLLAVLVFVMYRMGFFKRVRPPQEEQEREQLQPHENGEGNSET
T1 sequence (P05106 27-788): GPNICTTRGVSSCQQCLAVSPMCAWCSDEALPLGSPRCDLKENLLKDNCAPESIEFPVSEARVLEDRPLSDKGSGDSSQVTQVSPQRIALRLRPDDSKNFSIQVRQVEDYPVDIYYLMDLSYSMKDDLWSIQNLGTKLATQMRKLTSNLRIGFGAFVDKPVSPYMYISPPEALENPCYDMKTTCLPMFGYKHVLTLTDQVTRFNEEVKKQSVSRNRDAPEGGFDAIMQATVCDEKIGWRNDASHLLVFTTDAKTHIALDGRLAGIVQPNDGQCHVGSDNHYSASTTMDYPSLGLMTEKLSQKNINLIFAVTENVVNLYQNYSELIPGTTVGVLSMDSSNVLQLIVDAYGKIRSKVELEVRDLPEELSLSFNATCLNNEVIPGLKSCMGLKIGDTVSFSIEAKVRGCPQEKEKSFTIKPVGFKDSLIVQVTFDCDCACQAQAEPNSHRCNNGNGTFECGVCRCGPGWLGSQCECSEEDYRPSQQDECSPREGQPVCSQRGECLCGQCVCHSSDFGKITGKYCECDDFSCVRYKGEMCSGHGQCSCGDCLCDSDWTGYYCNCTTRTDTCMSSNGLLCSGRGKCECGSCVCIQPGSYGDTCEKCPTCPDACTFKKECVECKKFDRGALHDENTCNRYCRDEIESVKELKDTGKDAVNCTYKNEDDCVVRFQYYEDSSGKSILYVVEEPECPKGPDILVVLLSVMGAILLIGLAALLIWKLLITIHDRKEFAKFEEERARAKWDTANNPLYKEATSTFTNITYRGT
T2 sequence (P06756 31-889 limits assumed): as the sequence (P06756 31-889 limits assumed) above
T2 sequence (P06756 891-1048 partner limits assumed): as the sequence (P06756 891-1048 partner limits assumed) above
T2 sequence (P05106 27-788): as the sequence (P05106 27-788) above
T3 sequence (P08514 32-887 limits assumed): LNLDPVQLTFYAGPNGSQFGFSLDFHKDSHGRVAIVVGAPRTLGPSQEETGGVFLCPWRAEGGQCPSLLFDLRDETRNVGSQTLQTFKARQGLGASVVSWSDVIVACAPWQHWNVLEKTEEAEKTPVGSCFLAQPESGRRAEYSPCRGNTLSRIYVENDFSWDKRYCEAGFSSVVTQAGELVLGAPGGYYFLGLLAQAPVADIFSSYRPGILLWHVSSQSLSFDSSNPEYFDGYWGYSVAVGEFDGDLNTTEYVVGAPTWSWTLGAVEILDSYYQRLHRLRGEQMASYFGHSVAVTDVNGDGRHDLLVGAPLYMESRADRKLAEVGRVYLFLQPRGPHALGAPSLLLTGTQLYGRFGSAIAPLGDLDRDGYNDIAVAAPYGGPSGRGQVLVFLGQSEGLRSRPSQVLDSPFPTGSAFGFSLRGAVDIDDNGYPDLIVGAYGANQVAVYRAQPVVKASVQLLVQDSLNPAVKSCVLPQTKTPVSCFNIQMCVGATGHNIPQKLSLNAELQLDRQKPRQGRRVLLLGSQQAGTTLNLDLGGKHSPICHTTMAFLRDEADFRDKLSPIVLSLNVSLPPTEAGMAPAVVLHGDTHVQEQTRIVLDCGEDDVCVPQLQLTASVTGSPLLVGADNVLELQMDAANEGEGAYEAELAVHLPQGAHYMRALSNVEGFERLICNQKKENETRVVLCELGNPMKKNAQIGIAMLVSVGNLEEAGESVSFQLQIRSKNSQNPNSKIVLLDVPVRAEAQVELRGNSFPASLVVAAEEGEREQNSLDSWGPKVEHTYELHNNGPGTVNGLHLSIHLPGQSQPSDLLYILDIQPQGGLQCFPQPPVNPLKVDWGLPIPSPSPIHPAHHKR
T3 sequence (P08514 891-1039 partner limits assumed): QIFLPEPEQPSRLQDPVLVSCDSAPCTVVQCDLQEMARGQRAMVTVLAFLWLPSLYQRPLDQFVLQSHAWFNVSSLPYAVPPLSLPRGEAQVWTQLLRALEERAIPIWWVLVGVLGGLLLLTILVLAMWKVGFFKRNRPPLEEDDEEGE
T3 sequence (P05106 27-788): as the sequence (P05106 27-788) above

IC50 [1]: 2.7 µM
IC50 [2]: 27.3 µM
remaining activity at 200 µM [4]: 71.5%
melting point: 172 to 173 °C
Compound: N=C(N)NCCCOc1ccc2c(c1)N(Cc1ccccc1)C(=O)C(CC(=O)O)C2 (centres unmarked) [Example 172, [1-Benzyl-7-(3-guanidino-propoxy)-2-oxo-1,2,3,4-tetrahydro-quinolin-3-yl]-acetic Acid]
inhibition at 190 µM ([3]; Rattus norvegicus, Osteoclast, @ 190 μM): 15%

remaining activity at 100 µM ([1]; @ 100 μM, % Max = percentage of the specific binding, read-out: (αVβ3) RECEPTOR BINDING, % @ concentration): 30.9%
IC50 [2]: 79 µM
IC50 [4]: 216 µM
melting point: 130 to 180 °C
Compound: Cl.N=C(N)NCCC#Cc1ccc2c(c1)NC(=O)C(CC(=O)O)C2 (centres unmarked) [Example 100, [7-(4-Guanidino-but-1-ynyl)-2-oxo-1,2,3,4-tetrahydro-quinolin-3-yl]-acetic Acid Hydrochloride]
inhibition at 264 µM ([3]; Rattus norvegicus, Osteoclast, @ 264 μM): 38%

Compound: N=C(N)NCCCOc1ccc2c(c1)CCC(CC(=O)O)C2.O=C(O)C(F)(F)F (centres unmarked) [Example 37, [6-(3-Guanidino-propoxy)-1,2,3,4-tetrahydro-napthalen-2-yl]-acetic Acid Trifluoroacetate]
IC50 [1]: 2.9 µM
IC50 [2]: 8.9 µM
BONE PITTING INHIBITION ([3]; @ 238 μM): 30% @ 238
Change in Serum Calcium after 3 hours ([5]; 1st column pair): 1.72 mg/dL
Change in Serum Calcium after 6 hours ([5]; 1st column pair): 2.22 mg/dL
Change in Serum Calcium after 3 hours ([5]; 2nd column pair): 0.97 mg/dL
Change in Serum Calcium after 6 hours ([5]; 2nd column pair): 2.21 mg/dL
Change in Serum Calcium after 3 hours ([5]; 3rd column pair): 0.95 mg/dL
Change in Serum Calcium after 6 hours ([5]; 3rd column pair): 1.80 mg/dL
Change in Serum Calcium after 3 hours ([5]; 4th column pair): 1.31 mg/dL
Change in Serum Calcium after 6 hours ([5]; 4th column pair): 1.63 mg/dL
IC50 [4]: 82.4 µM

Compound: N=C(N)NCCCCCc1ccc2c(c1)NC(=O)C(CC(=O)O)C2.O=C(O)C(F)(F)F (centres unmarked) [Example 122, [7-(5-Guanidino-pentyl)-2-oxo-1,2,3,4-tetrahydro-quinolin-3-yl]-acetic Acid Trifluoroacetate]
IC50 [1]: 3.6 µM
IC50 [2]: 8.3 µM
IC50 ([3]; Rattus norvegicus, Osteoclast, read-out: BONE PITTING INHIBITION IC50): 159 µM
IC50 [4]: 57 µM
melting point: 148 to 151 °C

Compound: Cyclo(-Arg-Gly-Asp-D-Phe-Val)
Change in Serum Calcium (mg/dL) ([5]; Table III, TPTX rat, 100 mg/kg.sc): −0.90 + 0.28 mg/dL
Change in Serum Calcium after 3 hours ([5]; 1st column pair): 0.69 mg/dL
Change in Serum Calcium after 6 hours ([5]; 1st column pair): 1.20* mg/dl
Change in Serum Calcium after 3 hours ([5]; 2nd column pair): 0.58** mg/dl
Change in Serum Calcium after 6 hours ([5]; 2nd column pair): 1.44* mg/dl
Change in Serum Calcium after 3 hours ([5]; 3rd column pair): 0.01** mg/dl
Change in Serum Calcium after 6 hours ([5]; 3rd column pair): 0.63 mg/dL
Change in Serum Calcium after 3 hours ([5]; 4th column pair): 0.51** mg/dl
Change in Serum Calcium after 6 hours ([5]; 4th column pair): 1.07 mg/dL

Compound: N=C(N)NCCCCOc1cccc2c1NC(=O)C(CC(=O)O)C2 (centres unmarked) [Example 235, [8-(4-Guanidino-butoxy)-2-oxo-1,2,3,4-tetrahydro-quinolin-3-yl]-acetic Acid]
remaining activity at 30 µM [1, 6]: 100%
remaining activity at 100 µM [2]: 91%
inhibition at 221 µM ([3]; Rattus norvegicus, Osteoclast, @ 221 μM): -50%
remaining activity at 200 µM [4]: 81.1%
melting point: 207 to 210 °C

Compound: Cl.N=C(N)NCCCCOc1ccc2cc(CC(=O)O)c(=O)[nH]c2c1 [Example 184, [7-(4-Guanidino-butoxy)-2-oxo-1,2-dihydro-quinolin-3-yl]-acetic Acid Hydrochloride]
remaining activity at 30 µM [1, 6]: 67.5%
remaining activity at 20 µM [2]: 108%
remaining activity at 100 µM [2]: 85%
inhibition at 271 µM ([3]; Rattus norvegicus, Osteoclast, @ 271 μM): 37%
remaining activity at 200 µM [4]: 85.5%
melting point: 216.5 to 219 °C

remaining activity at 30 µM [1, 6]: 100%
remaining activity at 20 µM [2]: 104%
remaining activity at 100 µM [2]: 108%
IC50 [4]: 54 µM
melting point: 168 to 172 °C
Compound: N=C(N)NCCCOc1ccc2c(c1)CC(CCC(=O)O)C(=O)N2 (centres unmarked) [Example 223, 3-[6-(3-Guanidino-propoxy)-2-oxo-1,2,3,4-tetrahydro-quinolin-3-yl]-propionic Acid]
inhibition at 226 µM ([3]; Rattus norvegicus, Osteoclast, @ 226 μM): -72%
